# Columns and labels:
# [1] = Cytotoxicity against human HepG2 cells measured after 72 hrs by SRB assay; assay type: functional, cell-based; conditions: HepG2, 72 h
# [2] = biological target: T1, Hepatocyte growth factor receptor (Homo sapiens, UniProt P08581); experiment: Inhibition of GST-tagged c-Met (unknown origin) assessed as phosphotyrosine levels preincubated foe 15 mins followed by addition of poly(glutamic acid-tyrosine (4:1)) as substrate and ATP by ELISA
# [3] = Cytotoxicity against human […] cells measured after 48 hrs by SRB assay; assay type: functional; conditions: RXF 393, 48 h
# [4] = Cytotoxicity against human UO31 cells measured after 48 hrs by SRB assay; assay type: functional; conditions: UO-31, 48 h
# [5] = Cytotoxicity against human U251 cells measured after 48 hrs by SRB assay; assay type: functional; conditions: U-251, 48 h
# [6] = biological target: T1, Hepatocyte growth factor receptor; experiment: Inhibition of C-Met in human S114 cells assessed as inhibition of HGF-stimulated autophosphorylation preincubated for 60 mins followed by HGF-stimulation measured after 15 minsby DELFIA method; assay type: cell-based
# [7] = biological target: Glycogen synthase kinase-3 beta (Homo sapiens, UniProt P49841); experiment: Inhibition of GSK-3beta (unknown origin) assessed as inhibition of phosphorylation using Ser/Thr 9 peptide as substrate by FRET-based Z-LYTE assay
# Sequence of Glycogen synthase kinase-3 beta (P49841 whole entry): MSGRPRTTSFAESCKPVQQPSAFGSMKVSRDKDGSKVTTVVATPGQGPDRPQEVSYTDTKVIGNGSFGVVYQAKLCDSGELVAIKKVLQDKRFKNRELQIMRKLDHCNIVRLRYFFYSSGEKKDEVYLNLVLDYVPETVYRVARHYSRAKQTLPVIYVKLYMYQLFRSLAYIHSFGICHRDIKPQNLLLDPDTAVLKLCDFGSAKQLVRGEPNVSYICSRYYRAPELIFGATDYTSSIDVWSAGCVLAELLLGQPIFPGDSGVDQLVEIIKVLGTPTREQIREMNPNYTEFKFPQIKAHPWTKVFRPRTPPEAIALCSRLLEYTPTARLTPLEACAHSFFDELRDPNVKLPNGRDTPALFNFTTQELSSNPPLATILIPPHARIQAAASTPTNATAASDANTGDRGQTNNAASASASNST
# [8] = biological target: T2, Tyrosine-protein phosphatase non-receptor type 11 (Homo sapiens, UniProt Q06124)
# T2 sequence (Q06124 whole entry): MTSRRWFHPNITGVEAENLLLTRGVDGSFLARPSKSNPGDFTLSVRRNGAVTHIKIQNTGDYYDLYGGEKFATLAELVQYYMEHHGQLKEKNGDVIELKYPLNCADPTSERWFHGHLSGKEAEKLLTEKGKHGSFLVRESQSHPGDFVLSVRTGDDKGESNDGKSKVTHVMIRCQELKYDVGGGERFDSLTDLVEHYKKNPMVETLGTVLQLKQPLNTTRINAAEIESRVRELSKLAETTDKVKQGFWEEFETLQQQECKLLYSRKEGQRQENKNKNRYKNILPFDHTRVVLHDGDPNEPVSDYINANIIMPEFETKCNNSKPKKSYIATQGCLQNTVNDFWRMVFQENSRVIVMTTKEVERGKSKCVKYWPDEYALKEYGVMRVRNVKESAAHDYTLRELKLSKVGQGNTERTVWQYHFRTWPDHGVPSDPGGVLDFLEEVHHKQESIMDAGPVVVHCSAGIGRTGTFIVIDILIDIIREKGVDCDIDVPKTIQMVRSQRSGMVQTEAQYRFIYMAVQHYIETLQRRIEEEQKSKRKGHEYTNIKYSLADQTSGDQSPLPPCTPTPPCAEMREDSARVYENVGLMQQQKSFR
# Description: Inhibition of human GST-tagged Shp2 (205 to 593 residues) expressed Escherichia coli DH5alpha assessed as inhibition of PTP activity using DiFMUP as substrate measured after 30 mins by fluorescence analysis
# [9] = Growth inhibition of human SR cells measured after 48 hrs by SRB assay; assay type: functional
# [10] = Growth inhibition of human NCI-H522 cells measured after 48 hrs by SRB assay; assay type: functional
# [11] = Growth inhibition of human MDA-MB-468 cells measured after 48 hrs by SRB assay; assay type: functional
# [12] = biological target: Epidermal growth factor receptor (Homo sapiens) (UniProt P00533); experiment: Inhibition of EGFR (unknown origin) at 100 uM relative to control
# Sequence of Epidermal growth factor receptor (Homo sapiens) (P00533 whole entry): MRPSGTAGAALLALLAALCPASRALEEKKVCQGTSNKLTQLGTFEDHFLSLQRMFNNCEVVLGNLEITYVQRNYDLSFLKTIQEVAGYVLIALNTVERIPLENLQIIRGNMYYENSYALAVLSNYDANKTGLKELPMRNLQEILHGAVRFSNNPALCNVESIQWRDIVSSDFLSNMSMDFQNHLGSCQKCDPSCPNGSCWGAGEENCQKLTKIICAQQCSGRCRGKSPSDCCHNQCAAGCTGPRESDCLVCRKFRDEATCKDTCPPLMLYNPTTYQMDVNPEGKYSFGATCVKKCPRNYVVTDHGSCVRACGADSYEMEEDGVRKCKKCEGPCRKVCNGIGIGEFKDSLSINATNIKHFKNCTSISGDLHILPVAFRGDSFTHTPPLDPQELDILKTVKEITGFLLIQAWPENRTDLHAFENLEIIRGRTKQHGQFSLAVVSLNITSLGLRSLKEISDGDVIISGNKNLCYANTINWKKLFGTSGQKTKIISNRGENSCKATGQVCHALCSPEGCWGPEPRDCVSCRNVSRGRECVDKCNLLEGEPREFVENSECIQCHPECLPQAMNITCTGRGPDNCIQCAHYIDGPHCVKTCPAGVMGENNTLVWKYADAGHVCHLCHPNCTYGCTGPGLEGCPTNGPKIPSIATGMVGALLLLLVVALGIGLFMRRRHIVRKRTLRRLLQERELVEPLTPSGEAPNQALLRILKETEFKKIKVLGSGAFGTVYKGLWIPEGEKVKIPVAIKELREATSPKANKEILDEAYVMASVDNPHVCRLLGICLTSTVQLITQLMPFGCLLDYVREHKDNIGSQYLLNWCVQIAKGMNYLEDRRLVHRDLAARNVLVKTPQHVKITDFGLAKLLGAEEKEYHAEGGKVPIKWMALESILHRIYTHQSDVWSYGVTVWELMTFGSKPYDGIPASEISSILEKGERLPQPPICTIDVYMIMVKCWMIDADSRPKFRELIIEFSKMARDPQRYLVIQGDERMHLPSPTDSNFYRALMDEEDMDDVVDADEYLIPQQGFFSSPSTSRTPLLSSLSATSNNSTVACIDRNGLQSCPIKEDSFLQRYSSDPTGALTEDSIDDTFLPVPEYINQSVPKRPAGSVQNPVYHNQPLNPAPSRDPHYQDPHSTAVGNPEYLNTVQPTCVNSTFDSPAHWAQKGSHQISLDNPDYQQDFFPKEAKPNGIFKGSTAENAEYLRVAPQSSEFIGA
# [13] = Cytotoxicity against human KBV1 cells expressing P-glycoprotein measured after 72 hrs by MTT assay; assay type: functional, cell-based; conditions: KB-V1, 72 h
# [14] = Antiproliferative activity against human K562 cells measured after 48 hrs by WST1 assay; assay type: functional, cell-based; conditions: K562, 48 h
# [15] = Antiproliferative activity against human MCF7 cells measured after 48 hrs by SRB assay; assay type: functional, cell-based; conditions: MCF7, 48 h
# [16] = Cytotoxicity against human HOP62 cells measured after 48 hrs by SRB assay; assay type: functional; conditions: HOP-62, 48 h
# [17] = Cytotoxicity against human HL-60(TB) cells measured after 48 hrs by SRB assay; assay type: functional; conditions: HL-60, 48 h
# [18] = Cytotoxicity against human MOLT4 cells measured after 48 hrs by SRB assay; assay type: functional; conditions: MOLT-4, 48 h
# [19] = Cytotoxicity against human KB-3-1 cells measured after 72 hrs by MTT assay; assay type: functional, cell-based; conditions: KB 3-1, 72 h
# [20] = Cytotoxicity against porcine testicular cells assessed as cell death at 120 to 250 ug/ml; assay type: toxicity, cell-based, Sus scrofa; conditions: pig
# [21] = Anticancer activity against human HeLa cells measured after 48 hrs by MTT assay; assay type: functional, cell-based
# [22] = Anticancer activity against human IMR32 cells measured after 48 hrs by MTT assay; assay type: functional, cell-based; conditions: IMR-32, 48 h
# [23] = Antiproliferative activity against human MCF7 cells measured after 48 hrs by MTT assay; assay type: functional, cell-based; conditions: MCF7, 48 h
# [24] = Antiproliferative activity against mouse L1210 cells; assay type: functional, cell-based
# HeLa = experiment: Inhibition of HDAC in human HeLa cell nuclear extract at 30 uM using Fluor de Lys as substrate measured after 10 to 15 mins by fluorimetric assay; assay type: cell-free
# T1 sequence (P08581 whole entry): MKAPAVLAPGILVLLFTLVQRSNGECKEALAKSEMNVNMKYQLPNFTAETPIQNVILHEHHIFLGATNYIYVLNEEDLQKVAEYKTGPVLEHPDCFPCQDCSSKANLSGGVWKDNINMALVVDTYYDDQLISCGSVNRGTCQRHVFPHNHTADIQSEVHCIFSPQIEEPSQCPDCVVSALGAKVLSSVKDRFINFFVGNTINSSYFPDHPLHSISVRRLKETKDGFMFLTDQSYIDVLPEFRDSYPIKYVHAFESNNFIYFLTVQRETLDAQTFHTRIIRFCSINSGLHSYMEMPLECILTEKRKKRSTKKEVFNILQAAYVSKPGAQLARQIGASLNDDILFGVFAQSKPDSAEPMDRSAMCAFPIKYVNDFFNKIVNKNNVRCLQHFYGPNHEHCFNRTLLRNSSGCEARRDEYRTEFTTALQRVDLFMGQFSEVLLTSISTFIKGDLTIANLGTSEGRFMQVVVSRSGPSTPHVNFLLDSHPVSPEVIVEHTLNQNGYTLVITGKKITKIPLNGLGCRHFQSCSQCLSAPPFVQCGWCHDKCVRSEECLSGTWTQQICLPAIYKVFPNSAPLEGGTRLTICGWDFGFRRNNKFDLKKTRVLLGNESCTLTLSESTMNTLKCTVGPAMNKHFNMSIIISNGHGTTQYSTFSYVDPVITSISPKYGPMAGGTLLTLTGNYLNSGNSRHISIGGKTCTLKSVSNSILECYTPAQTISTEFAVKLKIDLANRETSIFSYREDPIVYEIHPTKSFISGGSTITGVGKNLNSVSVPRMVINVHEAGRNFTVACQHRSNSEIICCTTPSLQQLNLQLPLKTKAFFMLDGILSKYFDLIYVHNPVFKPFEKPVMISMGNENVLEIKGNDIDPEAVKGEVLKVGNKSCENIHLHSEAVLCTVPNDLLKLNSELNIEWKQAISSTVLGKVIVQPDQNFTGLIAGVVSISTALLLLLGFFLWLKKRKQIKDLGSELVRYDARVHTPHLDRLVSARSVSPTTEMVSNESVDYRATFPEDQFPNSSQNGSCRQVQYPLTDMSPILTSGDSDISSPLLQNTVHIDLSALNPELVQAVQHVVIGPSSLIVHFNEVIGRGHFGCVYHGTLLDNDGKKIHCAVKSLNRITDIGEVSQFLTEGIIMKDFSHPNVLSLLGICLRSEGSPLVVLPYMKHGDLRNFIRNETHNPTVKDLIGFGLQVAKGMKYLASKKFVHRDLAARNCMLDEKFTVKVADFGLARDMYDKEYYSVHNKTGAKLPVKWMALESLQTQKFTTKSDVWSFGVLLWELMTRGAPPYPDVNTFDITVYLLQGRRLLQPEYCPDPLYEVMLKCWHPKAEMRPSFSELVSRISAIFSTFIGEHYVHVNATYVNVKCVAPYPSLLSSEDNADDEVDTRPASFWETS
compound,measurement,setting,value
O=C1Nc2ccc(Cl)cc2/C1=N/Nc1nc(-c2ccc3c(c2)OCO3)nc2ccccc12,IC50,[1],1000 to 2400 nM
CSc1ccc(CC(=O)N/N=C2\C(=O)Nc3ccccc32)cc1,IC50,[2],> 20000 nM
O=c1[nH]cc(F)c(=O)[nH]1 [FLUOROURACIL],GI50,[3],55000 nM
same,GI50,[4],6760 nM
same,GI50,[5],42700 nM
O=C(Cc1ccc2c(c1)CCO2)N/N=C1\CNc2cc(C(=O)NCCCCN3CC[C@H](O)C3)cc(Br)c21,IC50,[6],0.7 nM
Cc1cc2c(cc1Br)NC(=O)/C2=N\NC(=O)c1ccccc1O,IC50,[7],15800 nM
O=C1Nc2ccc(S(=O)(=O)O)cc2/C1=N/Nc1ccccc1[N+](=O)[O-],IC50,[8],4990 nM
CS(=O)(=O)c1ccc(CC(=O)N/N=C2\C(=O)Nc3ccccc32)cc1,IC50,[2],> 20000 nM
O=C(CN/N=C1\C(=O)Nc2ccccc21)Nc1nc2ccc(Cl)cc2s1,growth inhibition (GI),[9],26.6%
same,growth inhibition (GI),[10],27.5%
same,growth inhibition (GI),[11],38.1%
same,inhibition,[12],36.6%
O=C(CSc1nc2ccccc2c(=O)n1-c1ccccc1)N/N=C1\C(=O)Nc2ccc(F)cc21,GI50,[3],1660 nM
same,GI50,[4],209 nM
same,GI50,[5],1700 nM
COc1ccc(NC(=S)N/N=C2\C(=O)Nc3ccccc32)cc1,IC50,[13],3300 nM
O=C(Cc1ccc(O)c(Cl)c1)N/N=C1\C(=O)Nc2c(Cl)ccc(Cl)c21,IC50,[2],9 nM
Cc1nc(-c2ccccc2)ccc1C(=O)N/N=C1\C(=O)Nc2ccc(Br)cc21,IC50,[14],25000 nM
O=C1Nc2ccc(F)cc2/C1=N/Nc1nc(-c2ccccc2)nc2ccccc12,IC50,[1],1000 to 2400 nM
COc1ccc(-c2nc(N/N=C3\C(=O)Nc4ccccc43)c3ccccc3n2)cc1OC,IC50,[1],1000 to 2400 nM
Nc1c(C(=O)N/N=C2\C(=O)Nc3ccc([N+](=O)[O-])cc32)cnn1C(=O)c1ccc(-c2nc3ccccc3s2)cc1,IC50,[15],10 nM
O=C1/C(=N\NC(=S)Nc2ccccc2)c2cc([N+](=O)[O-])ccc2N1CN1CCCCC1,GI50,[16],< 10 nM
same,GI50,[17],501 nM
same,GI50,[18],661 nM
O=C(Cc1ccc2c(c1)CCO2)N/N=C1\CNc2cc(C(=O)NCCN3CCOCC3)cc(Br)c21,IC50,[6],0.7 nM
O=C1Nc2ccc(OC(F)(F)F)cc2/C1=N/N=C1/C(=O)N(c2ccccc2)c2ccccc21,IC50,[19],7670 nM
same,IC50,[13],4800 nM
CN1CCN(CC(=O)N/N=C2\C(=O)Nc3ccc4ccccc4c32)CC1,Activity,[20],100%
O=C(N/N=C1\C(=O)Nc2ccc(Br)cc21)Nc1nc2ccccc2o1,IC50,[21],15900 nM
same,IC50,[22],13700 nM
same,IC50,[23],17900 nM
O=C(Cc1ccc(O)c(F)c1)N/N=C1\C(=O)Nc2c(Cl)ccc(Cl)c21,IC50,[2],9 nM
Cc1ccc2c(c1)/C(=N/NC(=O)N/N=C1\C(=O)Nc3ccc(C)cc31)C(=O)N2,IC50,[24],16000 nM
Cc1[nH]c(/C=N/N=C2\C(=O)Nc3ccc(F)cc32)c(C)c1C(=O)NCCCCCCCC(=O)NO,inhibition,HeLa,98%
O=C(Cc1ccc2c(c1)CCO2)N/N=C1\CNc2cc(C(=O)NCCCCN3CCC[C@H]3CO)cc(Br)c21,IC50,[6],0.5 nM
